Where two headings read alike, the source gives them in different places.
Tests used:
A549 cells = experiment: Anti-proliferation assay (Alamar Blue metabolism);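 note: 384-well plates, 72–80 h exposure at 37 °C, Alamar Blue fluorescence (ex 530 nm) read 3.5–5 h after dye addition, inhibition relative to mean of vehicle-only wells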
Protocol: Human non-small cells lung carcinoma cells A549 (ATCC# CCL-185), were grown at 37±0.5° C. and 5% CO2 in DMEM supplemented with 10% FBS, 2 mM glutamine, 1% penicillin, and 1% streptomycin.
Stock solutions (1000×) of each compound were prepared in DMSO and stored at −20° C. Master stock plates of 2-fold or 4-fold serial dilutions of individual compounds were prepared in 384-well plates. Combination matrices of test compounds were generated from these master stock plates by dilution into growth media described above. […] The combination matrices were used immediately and discarded.
The anti-proliferation assays were performed in 384-well plates. 6.6 μL of 10× stock solutions from the combination matrices were added to 40 μL of culture media in assay wells. The tumor cells were liberated from the culture flask using a solution of 0.25% trypsin. Cells were diluted in culture media such that 3000 or 6000 cells were delivered in 20 μL of media into each assay well. Assay plates were incubated for 72-80 hours at 37° C. ±0.5° C. with 5% CO2. Twenty microliters of 20% Alamar Blue warmed to 37° C. ±0.5° C. was added to each assay well following the incubation period. Alamar Blue metabolism was quantified by the amount of fluorescence intensity 3.5-5.0 hours after addition. Quantification, using an LJL Analyst AD reader (LJL Biosystems), was taken in the middle of the well with high attenuation, a 100 msec read time, an excitation filter at 530 nm, and an emission filter at 575 nm. For some experiments, quantification was performed using a Wallac Victor^2 reader. Measurements were taken at the top of the well with stabilized energy lamp control; a 100 msec read time, an excitation filter at 530 nm, and an emission filter at 590 nm.
The percent inhibition (% I) for each well was calculated using the following formula: % I=[(avg. untreated wells−treated well)/(avg. untreated wells)]×100 The average untreated well value (avg. untreated wells) is the arithmetic mean of 40 wells from the same assay plate treated with vehicle alone.
Inhibition of proliferation was measured by anti-proliferation assay as described below after incubation with the test compound(s) for 72 hours.

[1] = cited from earlier work

## O=c1[nH]cc(F)c(=O)[nH]1 [5-Fluorouracil, 5-fluorouracil]
A549 cells; Homo sapiens, A549, read-out: Percent inhibition of Alamar Blue Metabolism, 5-fluorouracil 0.01 μM alone
  inhibition at 0.01 µM: 2.9%
A549 cells; Homo sapiens, A549, read-out: Percent inhibition of Alamar Blue Metabolism, 5-fluorouracil 0.10 μM alone
  inhibition at 0.1 µM: -0.5%
A549 cells; Homo sapiens, A549, read-out: Percent inhibition of Alamar Blue Metabolism, 5-fluorouracil 0.50 μM alone
  inhibition at 0.5 µM: 40.6%
A549 cells; Homo sapiens, A549, read-out: Percent inhibition of Alamar Blue Metabolism, 5-fluorouracil 0.75 μM alone
  inhibition at 0.75 µM: 64.3%
A549 cells; Homo sapiens, A549, read-out: Percent inhibition of Alamar Blue Metabolism, 5-fluorouracil 1.00 μM alone
  inhibition at 1 µM: 75.4%
A549 cells; Homo sapiens, A549, read-out: Percent inhibition of Alamar Blue Metabolism, 5-fluorouracil 1.50 μM alone
  inhibition at 1.5 µM: 73.6%
A549 cells; Homo sapiens, A549, read-out: Percent inhibition of Alamar Blue Metabolism, 5-fluorouracil 2.00 μM alone
  inhibition at 2 µM: 87.2%
A549 cells; Homo sapiens, A549, read-out: Percent inhibition of Alamar Blue Metabolism, 5-fluorouracil 5.00 μM alone
  inhibition at 5 µM: 79.8%
A549 cells; Homo sapiens, A549, read-out: Percent inhibition of Alamar Blue Metabolism, 5-fluorouracil 10.00 μM alone
  inhibition at 10 µM: 82.4%

## N=C(N)c1ccc(OCCCCCOc2ccc(C(=N)N)cc2)cc1 [Pentamidine isethionate, 4,4′-diamidino-diphenoxypentane di(β-hydroxyethanesulfonate)]
[1]; in ether, acetone, and chloroform
  solubility: insoluble
[1]; in water and glycerin
  solubility: soluble

## N.N.O=C([O-])C1(C(=O)[O-])CCC1.[Pt+2] [Carboplatin, carboplatin]
A549 cells; carboplatin 0.15 μM alone
  Percent inhibition of Alamar Blue Metabolism: 5.5%
A549 cells; carboplatin 0.30 μM alone
  Percent inhibition of Alamar Blue Metabolism: 14.5%
A549 cells; carboplatin 0.59 μM alone
  Percent inhibition of Alamar Blue Metabolism: 9.8%
A549 cells; carboplatin 1.19 μM alone
  Percent inhibition of Alamar Blue Metabolism: −19.0%
A549 cells; carboplatin 2.38 μM alone
  Percent inhibition of Alamar Blue Metabolism: 13.9%
A549 cells; carboplatin 4.75 μM alone
  Percent inhibition of Alamar Blue Metabolism: 16.4%
A549 cells; carboplatin 9.50 μM alone
  Percent inhibition of Alamar Blue Metabolism: 35.8%
A549 cells; carboplatin 19.00 μM alone
  Percent inhibition of Alamar Blue Metabolism: 30.5%
A549 cells; carboplatin 38.00 μM alone
  Percent inhibition of Alamar Blue Metabolism: 48.7%

## Nc1ccn([C@@H]2O[C@H](CO)[C@@H](O)C2(F)F)c(=O)n1 [Gemcitabine, gemcitabine]
A549 cells; Homo sapiens, A549, read-out: Percent inhibition of Alamar Blue Metabolism, gemcitabine 0.00016 μM alone
  inhibition at 0.00016 µM: 7.9%
A549 cells; Homo sapiens, A549, read-out: Percent inhibition of Alamar Blue Metabolism, gemcitabine 0.00033 μM alone
  inhibition at 0.00033 µM: 19.1%
A549 cells; Homo sapiens, A549, read-out: Percent inhibition of Alamar Blue Metabolism, gemcitabine 0.00066 μM alone
  inhibition at 0.00066 µM: 11.3%
A549 cells; Homo sapiens, A549, read-out: Percent inhibition of Alamar Blue Metabolism, gemcitabine 0.00131 μM alone
  inhibition at 0.00131 µM: 12.3%
A549 cells; Homo sapiens, A549, read-out: Percent inhibition of Alamar Blue Metabolism, gemcitabine 0.00263 μM alone
  inhibition at 0.00263 µM: 13.8%
A549 cells; Homo sapiens, A549, read-out: Percent inhibition of Alamar Blue Metabolism, gemcitabine 0.00525 μM alone
  inhibition at 0.00525 µM: 61.8%
A549 cells; Homo sapiens, A549, read-out: Percent inhibition of Alamar Blue Metabolism, gemcitabine 0.01050 μM alone
  inhibition at 0.0105 µM: 87.4%
A549 cells; Homo sapiens, A549, read-out: Percent inhibition of Alamar Blue Metabolism, gemcitabine 0.02100 μM alone
  inhibition at 0.021 µM: 88.7%
A549 cells; Homo sapiens, A549, read-out: Percent inhibition of Alamar Blue Metabolism, gemcitabine 0.04200 μM alone
  inhibition at 0.042 µM: 89.8%

## CC[C@]1(O)C[C@@H]2CN(CCc3c([nH]c4ccccc34)[C@@](C(=O)OC)(c3cc4c(cc3OC)N(C)[C@H]3[C@@](O)(C(=O)OC)[C@H](OC(C)=O)[C@]5(CC)C=CCN6CC[C@]43[C@@H]65)C2)C1 [Vinblastine, vinblastine]
A549 cells; Homo sapiens, A549, read-out: Percent inhibition of Alamar Blue Metabolism, vinblastine 0.0001 μM alone
  inhibition at 0.0001 µM: -22.3%
A549 cells; Homo sapiens, A549, read-out: Percent inhibition of Alamar Blue Metabolism, vinblastine 0.0002 μM alone
  inhibition at 0.0002 µM: -8.3%
A549 cells; Homo sapiens, A549, read-out: Percent inhibition of Alamar Blue Metabolism, vinblastine 0.0004 μM alone
  inhibition at 0.0004 µM: 7.4%
A549 cells; Homo sapiens, A549, read-out: Percent inhibition of Alamar Blue Metabolism, vinblastine 0.0008 μM alone
  inhibition at 0.0008 µM: 41.5%
A549 cells; Homo sapiens, A549, read-out: Percent inhibition of Alamar Blue Metabolism, vinblastine 0.0016 μM alone
  inhibition at 0.0016 µM: 48.4%
A549 cells; Homo sapiens, A549, read-out: Percent inhibition of Alamar Blue Metabolism, vinblastine 0.0031 μM alone
  inhibition at 0.0031 µM: 61.1%
A549 cells; Homo sapiens, A549, read-out: Percent inhibition of Alamar Blue Metabolism, vinblastine 0.0063 μM alone
  inhibition at 0.0063 µM: 67.2%
A549 cells; Homo sapiens, A549, read-out: Percent inhibition of Alamar Blue Metabolism, vinblastine 0.0125 μM alone
  inhibition at 0.0125 µM: 77.2%
A549 cells; Homo sapiens, A549, read-out: Percent inhibition of Alamar Blue Metabolism, vinblastine 0.0250 μM alone
  inhibition at 0.025 µM: 85.5%

## COc1cccc2c1C(=O)c1c(O)c3c(c(O)c1C2=O)C[C@@](O)(C(=O)CO)C[C@@H]3O[C@H]1C[C@H](N)[C@H](O)[C@H](C)O1 [Doxorubicin, doxorubicin]
A549 cells; Homo sapiens, A549, read-out: Percent inhibition of Alamar Blue Metabolism, doxorubicin 0.0008 μM alone
  inhibition at 0.0008 µM: 32%
A549 cells; Homo sapiens, A549, read-out: Percent inhibition of Alamar Blue Metabolism, doxorubicin 0.0016 μM alone
  inhibition at 0.0016 µM: 27.5%
A549 cells; Homo sapiens, A549, read-out: Percent inhibition of Alamar Blue Metabolism, doxorubicin 0.0031 μM alone
  inhibition at 0.0031 µM: 34.4%
A549 cells; Homo sapiens, A549, read-out: Percent inhibition of Alamar Blue Metabolism, doxorubicin 0.0063 μM alone
  inhibition at 0.0063 µM: 40.3%
A549 cells; Homo sapiens, A549, read-out: Percent inhibition of Alamar Blue Metabolism, doxorubicin 0.0125 μM alone
  inhibition at 0.0125 µM: 55.6%
A549 cells; Homo sapiens, A549, read-out: Percent inhibition of Alamar Blue Metabolism, doxorubicin 0.0250 μM alone
  inhibition at 0.025 µM: 63.8%
A549 cells; Homo sapiens, A549, read-out: Percent inhibition of Alamar Blue Metabolism, doxorubicin 0.0500 μM alone
  inhibition at 0.05 µM: 67.5%
A549 cells; Homo sapiens, A549, read-out: Percent inhibition of Alamar Blue Metabolism, doxorubicin 0.1000 μM alone
  inhibition at 0.1 µM: 63%
A549 cells; Homo sapiens, A549, read-out: Percent inhibition of Alamar Blue Metabolism, doxorubicin 0.2000 μM alone
  inhibition at 0.2 µM: 62.9%

## COc1cc([C@@H]2c3cc4c(cc3[C@@H](O[C@@H]3O[C@@H]5CO[C@@H](C)O[C@H]5[C@H](O)[C@H]3O)[C@H]3COC(=O)[C@H]23)OCO4)cc(OC)c1O [Etoposide, etoposide]
A549 cells; Homo sapiens, A549, read-out: Percent inhibition of Alamar Blue Metabolism, etoposide 0.04 μM alone
  inhibition at 0.04 µM: 3.9%
A549 cells; Homo sapiens, A549, read-out: Percent inhibition of Alamar Blue Metabolism, etoposide 0.08 μM alone
  inhibition at 0.08 µM: 46.5%
A549 cells; Homo sapiens, A549, read-out: Percent inhibition of Alamar Blue Metabolism, etoposide 0.16 μM alone
  inhibition at 0.16 µM: 38.7%
A549 cells; Homo sapiens, A549, read-out: Percent inhibition of Alamar Blue Metabolism, etoposide 0.31 μM alone
  inhibition at 0.31 µM: 42.7%
A549 cells; Homo sapiens, A549, read-out: Percent inhibition of Alamar Blue Metabolism, etoposide 0.63 μM alone
  inhibition at 0.63 µM: 52.4%
A549 cells; Homo sapiens, A549, read-out: Percent inhibition of Alamar Blue Metabolism, etoposide 1.25 μM alone
  inhibition at 1.25 µM: 62.8%
A549 cells; Homo sapiens, A549, read-out: Percent inhibition of Alamar Blue Metabolism, etoposide 2.50 μM alone
  inhibition at 2.5 µM: 76.1%
A549 cells; Homo sapiens, A549, read-out: Percent inhibition of Alamar Blue Metabolism, etoposide 5.00 μM alone
  inhibition at 5 µM: 77.5%
A549 cells; Homo sapiens, A549, read-out: Percent inhibition of Alamar Blue Metabolism, etoposide 10.00 μM alone
  inhibition at 10 µM: 79.4%
